Laboratory results reported in ChEMBL document CHEMBL3091362, “Molecular basis for the long duration of action and kinetic selectivity of tiotropium for the muscarinic M3 receptor” (J Med Chem, 2013).

What was measured:
[1] = molecular target: T1, Muscarinic acetylcholine receptor M3 (Homo sapiens, UniProt P20309); test: biochemical; assay type: cell-based, HEK-293T
Target sequence in this assay (P20309 whole entry): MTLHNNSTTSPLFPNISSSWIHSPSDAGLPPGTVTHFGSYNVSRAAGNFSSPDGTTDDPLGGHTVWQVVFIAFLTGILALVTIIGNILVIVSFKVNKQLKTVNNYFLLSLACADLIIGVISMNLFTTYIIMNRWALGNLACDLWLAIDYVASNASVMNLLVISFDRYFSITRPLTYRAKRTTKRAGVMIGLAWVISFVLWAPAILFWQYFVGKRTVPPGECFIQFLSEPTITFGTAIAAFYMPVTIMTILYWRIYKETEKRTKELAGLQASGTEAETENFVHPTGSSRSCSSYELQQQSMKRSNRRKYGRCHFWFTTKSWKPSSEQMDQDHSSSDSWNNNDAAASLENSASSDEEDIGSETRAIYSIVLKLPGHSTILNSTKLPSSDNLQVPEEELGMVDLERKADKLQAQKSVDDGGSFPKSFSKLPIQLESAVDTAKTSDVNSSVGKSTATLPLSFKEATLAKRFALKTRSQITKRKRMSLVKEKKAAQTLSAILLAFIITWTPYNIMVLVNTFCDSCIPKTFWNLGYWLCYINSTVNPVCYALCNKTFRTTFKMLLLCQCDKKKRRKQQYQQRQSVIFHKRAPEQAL
Description: Binding affinity to wild type human M3 receptor expressed in HEK293T cells up to 24 hrs by radioligand displacement assay

[2] = system: Muscarinic acetylcholine receptor M3 (Homo sapiens), P20309 [K523A]; settings: HEK-293T
[3] = system: Muscarinic acetylcholine receptor M3 (Homo sapiens), P20309 [K213A]; settings: HEK-293T
Chain of Muscarinic acetylcholine receptor M3 (Homo sapiens), P20309 [K213A] (P20309 whole entry K213A): as the sequence (P20309 whole entry) above, with K213A counted along it

[4] = system: Muscarinic acetylcholine receptor M3 (Homo sapiens), P20309 [Q224A]; settings: HEK-293T
Chain of Muscarinic acetylcholine receptor M3 (Homo sapiens), P20309 [Q224A] (P20309 whole entry Q224A): as the sequence (P20309 whole entry) above, with Q224A counted along it

[5] = system: Muscarinic acetylcholine receptor M3 (Homo sapiens), P20309 [D518A]; settings: HEK-293T
Chain of Muscarinic acetylcholine receptor M3 (Homo sapiens), P20309 [D518A] (P20309 whole entry D518A): as the sequence (P20309 whole entry) above, with D518A counted along it

[6] = system: Muscarinic acetylcholine receptor M3 (Homo sapiens), P20309 [R133A]; settings: HEK-293T
Chain of Muscarinic acetylcholine receptor M3 (Homo sapiens), P20309 [R133A] (P20309 whole entry R133A): as the sequence (P20309 whole entry) above, with R133A counted along it

[7] = system: Muscarinic acetylcholine receptor M3 (Homo sapiens), P20309 [F222A]; settings: HEK-293T
Chain of Muscarinic acetylcholine receptor M3 (Homo sapiens), P20309 [F222A] (P20309 whole entry F222A): as the sequence (P20309 whole entry) above, with F222A counted along it

[8] = system: Muscarinic acetylcholine receptor M3 (Homo sapiens), P20309 [F225A]; settings: HEK-293T
Chain of Muscarinic acetylcholine receptor M3 (Homo sapiens), P20309 [F225A] (P20309 whole entry F225A): as the sequence (P20309 whole entry) above, with F225A counted along it

[9] = molecular target: T1, Muscarinic acetylcholine receptor M3; settings: HEK-293T
Target sequence in this assay (P20309 whole entry, looked up): as the sequence (P20309 whole entry) above
Description: Binding affinity to wild type human M3 receptor expressed in HEK293T cells assessed as half life by radioligand displacement assay

[10] = system: Muscarinic acetylcholine receptor M3 (Homo sapiens), P20309 [E220A]; settings: HEK-293T
Chain of Muscarinic acetylcholine receptor M3 (Homo sapiens), P20309 [E220A] (P20309 whole entry E220A): as the sequence (P20309 whole entry) above, with E220A counted along it

[11] = system: Muscarinic acetylcholine receptor M3 (Homo sapiens), P20309 [E228A]; settings: HEK-293T
Chain of Muscarinic acetylcholine receptor M3 (Homo sapiens), P20309 [E228A] (P20309 whole entry E228A): as the sequence (P20309 whole entry) above, with E228A counted along it

Chain of Muscarinic acetylcholine receptor M3 (Homo sapiens), P20309 [K523A] (P20309 whole entry K523A): as the sequence (P20309 whole entry) above, with K523A counted along it

Question: With `CC(C(=O)O[C@H]1C[C@@H]2[C@H]3O[C@H]3[C@H](C1)[N+]2(C)C)(c1cccs1)c1cccs1` as the molecule, how does the Ki [1] read?
Answer: Its Ki is 0.0501 nM.

Question: `C[N+]1(C)[C@@H]2C[C@H](OC(=O)C(O)(c3ccccc3)c3ccccc3)C[C@H]1[C@@H]1O[C@@H]12` was tested. Which Ki [1] did it give?
Answer: Its Ki is 0.0631 nM.

Question: Which results are given for `C[N+]1(C)[C@@H]2C[C@@H](OC(=O)C(O)(c3cccs3)c3cccs3)C[C@H]1[C@@H]1O[C@@H]12`?
Answer: T1/2 [2]: 12.5 h; T1/2 [3]: 20.4 h; T1/2 [4]: 12.4 h; T1/2 [5]: 22.6 h; T1/2 [6]: 25.4 h; T1/2 [7]: 23 h; T1/2 [8]: 13.8 h; T1/2 [9]: 24.5 h; T1/2 [10]: 31.7 h; T1/2 [11]: 20.1 h

Question: With `C[N+]1(C)[C@@H]2C[C@H](OC(=O)C(O)c3ccccc3)C[C@H]1[C@@H]1O[C@@H]12` (stereo partly specified) as the molecule, how does the Ki [1] read?
Answer: The Ki was 2 nM.

Question: How did the Ki [1] turn out when `C[N+]1(C)[C@@H]2C[C@H](OC(=O)C(O)c3cccs3)C[C@H]1[C@@H]1O[C@@H]12` (stereo partly specified) was run?
Answer: The Ki was 5.01 nM.

Question: Which Ki [1] does the source give for `C[N+]1(C)[C@@H]2C[C@H](OC(=O)C(CO)(c3cccs3)c3cccs3)C[C@H]1[C@@H]1O[C@@H]12` here?
Answer: Its Ki is 0.316 nM.

Question: For `COC(C(=O)O[C@H]1C[C@@H]2[C@H]3O[C@H]3[C@H](C1)[N+]2(C)C)(c1cccs1)c1cccs1`, which Ki [1] is on record?
Answer: Its Ki is 1.58 nM.
